Read-outs that look alike come from different tables or passages of the source.
Key:
[1] = alamarBlue cytotoxicity assay; type: cell-based; settings: mouse, J774A.1, 24 h, mean ± SD, read-out: Murine macrophages CC50
Description: (§1) The activity evaluation of the molecules was carried out in two different N. fowleri strains (ATCC® 30808™ and ATCC® 30215™) from the American Type Culture Collection (LG Promochem, Barcelona, Spain). The cytotoxicity of the compounds was evaluated using a murine macrophages cell line (ATCC® TIB-67). Cells were grown as previously described ([Rizo-Liendo et al., 2020]).
In order to evaluate the cytotoxicity of the compounds a murine macrophages cell line (ATCC® TIB-67) was used. A known concentration of cells (10^5 cells/mL) was incubated with serial dilutions of the molecules. After that, the alamarBlue® reagent was added and the plates were incubated for 24 h at 37 °C and in a 5% of CO2 atmosphere ([Arberas-Jiménez et al., 2020]). The same alamarBlue® based protocol described in the section above was assessed to obtain de cytotoxic concentration 50 (CC50).

N. fowleri ATCC® 30808™ = assay: alamarBlue colorimetric activity assay, trophozoites; type: cell-based, Naegleria fowleri; settings: for IC50: Naegleria fowleri, read-out: N. fowleri ATCC® 30808™ IC50; for N. fowleri ATCC® 30808™ SI (CC50/IC50): selectivity index
Description: as §1
(§2) A colorimetric assay based on the alamarBlue® reagent was performed to evaluate the activity of the compounds in two different N. fowleri strains (ATCC® 30808™ and ATCC® 30215™). The same protocol optimized by Rizo-Liendo et al. was followed in these assays ([Rizo-Liendo et al., 2019]). Briefly, N. fowleri trophozoites (2 × 10^5 cells/mL) were incubated with serial dilutions (in the same culture media) of the compounds in a 96 well microtiter plate. Next, the alamarBlue® reagent was added and the plates were incubated at 37 °C. After 48 h, the fluorescence was read in an EnSpire Multimode Plate Reader (Perkin Elmer, Madrid, Spain) using a wavelength of excitation of 570 nm and a wavelength of emission of 585 nm.
(§3) All experiments were carried out in triplicate and mean values were also calculated.

N. fowleri ATCC® 30215™ = assay: as above; type: cell-based, Naegleria fowleri; settings: for IC50: Naegleria fowleri, read-out: N. fowleri ATCC® 30215™ IC50; for N. fowleri ATCC® 30215™ SI (CC50/IC50): selectivity index
Description: as §1, §2, §3

[2] = tested on: N. fowleri ATCC® 30808™ trophozoites; assay: CellROX Deep Red intracellular ROS; type: cell-based, Naegleria fowleri; settings: IC50 and IC90 of compound, 24 h
Description: (§4) The aim of these assays was to evaluate the presence of different metabolic events that are shown in programmed cell death like process (PCD-like) undergoing cells. […] After the treatment of the cells with these concentrations of the molecules, a 50% and a 10%, respectively, of the amoebae in the well remain as viable. Finally, the protocol for each kit was performed following manufacturers’ instructions. Moreover, the percentage of stained cells after the incubation of the treated and non-treated cells with each kit and the ratio of fluorescence between the aggregate and monomer forms of the JC-1 was evaluated. For this, the EVOS M5000 Cell Imaging System (Life Technologies, Madrid, Spain) was used and each experiment was performed in triplicate. In each experiment five different images were evaluated with a minimum number of cells of 80.
The CellROX Deep Red fluorescent assay (Invitrogen, Termo Fisher Scientifc, Madrid, Spain) was used to perform the ROS levels evaluation. After the cell incubation with the yucatecone the stain was added and incubated for half an hour in the dark. Finally, images were obtained with an EVOS M5000 Cell Imaging System (Life Technologies, Madrid, Spain). The presence of ROS is detected by intense red fluorescence.

[3] = tested on: Cysts of N. fowleri ATCC® 30808™; assay: alamarBlue activity assay against cysts; type: cell-based; settings: Naegleria fowleri, ATCC30808, read-out: IC50 against N. fowleri cysts
Description: Cysts of N. fowleri ATCC® 30808™ strain were used in these assays. Cysts were obtained as previously described and performing the protocol optimized by our group ([Arberas-Jiménez et al., 2022]). Mature cysts (2 × 10^5 cells/mL) were incubated with serial dilutions of yucatecone during 24 h at 37 °C. Subsequently, the media was removed and fresh bactocasitone was added with the aim to facilitate the excystation. Finally, the alamarBlue® reagent was added and the plates were incubated for 72 more hours at 37 °C prior to reading the fluorescence and determining the IC50 as described in section 2.4.

N. fowleri trophozoites = assay: Celltiter-Glo ATP level measurement; type: cell-based, Naegleria fowleri
Description: as §4
The ATP level measurement was performed with the Celltiter-Glo® Luminescent Cell Viability Assay (Promega Biotech Ibérica, Madrid, Spain). […]

[4] = tested on: N. fowleri ATCC® 30808™ trophozoites; assay: SYTOX Green plasmatic membrane permeability; type: cell-based, Naegleria fowleri; settings: IC50 and IC90 of compound, 24 h
Description: as §4
The SYTOX Green kit (Life Technologies, Madrid, Spain) was used for the evaluation of the cellular plasmatic membrane damage. This stain binds to the DNA of those cells who have suffered alterations in the permeability of the plasmatic membrane and emits a high green fluorescence. […] This assay was performed following manufacturer's instruction and modified by [Sifaoui et al. (2018)]. An EVOS M5000 Cell Imaging System (Life Technologies, Madrid, Spain) was used to obtain the images.

[5] = tested on: N. fowleri ATCC® 30808™ trophozoites; assay: Hoechst 33342/propidium iodide double stain for chromatin condensation; type: cell-based, Naegleria fowleri; settings: IC50 and IC90 of compound, 24 h
Description: as §4
A double stain detection kit Hoechst 33342/propidium iodide (PI) (Life Technologies, Madrid, Spain) and an EVOS M5000 Cell Imaging System (Life Technologies, Madrid, Spain) were used in this experiment. The assay was performed following manufacturer's instruction.
This kit enables to distinguish between three different group of cells: A light blue fluorescence corresponds to live cells whereas in the treated cells an intense blue fluorescence is shown. Finally, red fluorescence appears in dead cells as the IP binds to their DNA.

[6] = tested on: N. fowleri ATCC® 30808™ trophozoites; assay: JC-1 mitochondrial membrane potential; type: cell-based, Naegleria fowleri; settings: IC50 and IC90 of compound, 24 h
Description: as §4
The mitochondrial membrane potential decrease was determined using the JC-1 Mitochondrial Membrane Potential Assay Kit (Cayman Chemicals, Vitro SA, Madrid, Spain). The JC-1 dye presents potential-dependent accumulation in mitochondria. At high membrane potentials (healthy cells) JC-1 dye accumulates as “J-aggregates” in the mitochondria and emits red fluorescence whereas at low membrane potentials (cells undergoing PCD-like responses) the dye is presented in monomeric form in the cytoplasm, emitting green fluorescence. […]

[7] = ATCC30808, trophozoite stage, 48 h, mean ± SD, triplicate, N/A = no activity observed
[8] = ATCC30215, trophozoite stage, 48 h, mean ± SD, triplicate

SMILES	CC50 at 24 h [1]	IC50 (N. fowleri ATCC® 30808™; [7])	N. fowleri ATCC® 30808™ SI (CC50/IC50) (N. fowleri ATCC® 30808™)	IC50 (N. fowleri ATCC® 30215™; [8])	N. fowleri ATCC® 30215™ SI (CC50/IC50) (N. fowleri ATCC® 30215™)	CC50 at 24 h ([1]; J774A.1 murine macrophage cell line (ATCC TIB-67))	intracellular ROS level (CellROX Deep Red) [2]	IC50 [3]	IC50 (N. fowleri ATCC® 30808™; ATCC30808, 48 h)	N. fowleri ATCC® 30808™ SI (CC50/IC50) (N. fowleri ATCC® 30808™; listed as Yucatecone)	IC50 (N. fowleri ATCC® 30215™; ATCC30215, 48 h)	decrease of ATP production (N. fowleri trophozoites; treated with the IC50, compared to negative control)	decrease of ATP production (N. fowleri trophozoites; treated with the IC90, compared to negative control)	plasma membrane permeability (SYTOX Green) [4]	chromatin condensation (Hoechst 33342) [5]	propidium iodide staining [5]	mitochondrial membrane potential (JC-1) [6]
C=C(CCC(=O)C1(C)CCC(C(C)(C)O)O1)C1CCC2OC(C3(C)CCC(Br)C(C)(C)O3)CCC2(C)O1 (stereo not shown) [18-KetoDT (6), 18-ketodehydrothyrsiferol]	40 ± 1.06 µM	15.3 ± 2.82 µM	2.61	12.7 ± 2.64 µM	3.17												
C[C@@H]1[C@H](O)[C@@H](C)/C=C/C=C/C=C/C=C/C=C/C=C/C=C/[C@H](O[C@@H]2O[C@H](C)[C@@H](O)[C@H](N)[C@@H]2O)C[C@@H]2O[C@](O)(C[C@@H](O)C[C@@H](O)[C@H](O)CC[C@@H](O)C[C@@H](O)CC(=O)O[C@H]1C)C[C@H](O)[C@H]2C(=O)O [Amphotericin B, reference compound]		0.12 ± 0.03 µM	>1652.89	0.16 ± 0.02 µM	>1204.82	> 200 µM											
CCCCCCCCCCCCCCCCOP(=O)([O-])OCC[N+](C)(C)C [Miltefosine, reference compound]		38.7 ± 4.23 µM	3.30	81.6 ± 7.23 µM	1.57												
CC(CCC(=O)C1(C)CCC(C(C)(C)O)O1)C1CCC2OC(C3(C)CCC(Br)C(C)(C)O3)CCC2(C)O1 (stereo not shown) [Yucatecone (4), yucatecone]	> 85 µM		>2.98		>5.23		increased the intracellular ROS level production	9.43 ± 1.48 µM	28.5 ± 5.04 µM	> 2.98	16.2 ± 1.23 µM	54.80%	90.44%	caused plasma membrane permeabilty damage	induces chromatin condensation	no fluorescence is shown	induces the depolarization of the mitochondrial membrane potential

— article PMC10258243, “Identification and characterization of novel marine oxasqualenoid yucatecone against Naegleria fowleri” (International Journal for Parasitology: Drugs and Drug …, 2023)
